Assay results published in ChEMBL document CHEMBL3621082, “Rational design of proteinprotein interaction inhibitors” (Medchemcomm, 2015).
Blank lines part the entries; values can stand above or below the compound they belong to.

Experiments:
Annexin A2/S100-A10 = Annexin A2/S100-A10 (Homo sapiens, UniProt P07355+P60903); assay: Inhibition of Annexin A2/Protein S100-A10 (unknown origin) protein interaction by competitive fluorescent binding assay
Neuropilin-1 = Neuropilin-1 (Homo sapiens, UniProt O14786); assay: Binding affinity to NRP1 (unknown origin) assessed as reduction in […]VEGFA (165) protein interaction
[1] = Antiproliferative activity against breast cancer cells (unknown origin); format: functional, cell-based; conditions: Cancer cell lines
Alpha-crystallin B chain = molecular target: T1, Alpha-crystallin B chain (Homo sapiens, UniProt P02511); assay: Binding affinity to CRYAB (unknown origin) assessed as reduction in CRYAB-VEGFA protein interaction
T1 sequence (P02511 whole entry): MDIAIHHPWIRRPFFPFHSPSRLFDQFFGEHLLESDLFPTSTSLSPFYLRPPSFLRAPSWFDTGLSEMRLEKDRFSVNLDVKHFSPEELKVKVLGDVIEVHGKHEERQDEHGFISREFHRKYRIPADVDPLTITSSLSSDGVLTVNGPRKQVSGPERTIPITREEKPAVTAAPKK

[2] = molecular target: Tumour suppressor p53/oncoprotein Mdm2 (Homo sapiens, UniProt P04637+Q00987); assay: Inhibition of MDM2/p53 (unknown origin) interaction by fluorescence polarization assay; format: protein assay
MCF7 = assay: Cytotoxicity against human MCF7 cells; format: functional, cell-based
[3] = Inhibition of HIV1 gp41; design: species or system Human immunodeficiency virus 1
Keap1/Nrf2 = Keap1/Nrf2 (Homo sapiens, UniProt Q14145+Q16236); assay: Inhibition of Nrf2/Keap1 (unknown origin) protein interaction by fluorescence anisotropy method; format: protein assay
[4] = molecular target: T2, Urokinase plasminogen activator surface receptor (Homo sapiens, UniProt Q03405); assay: Binding affinity to uPAR (unknown origin) assessed as reduction in uPA-uPAR protein interaction
[5] = molecular target: T2, Urokinase plasminogen activator surface receptor; assay: Binding affinity to uPAR (unknown origin)
[6] = molecular target: Tumour suppressor protein p53/Mdm4 (Homo sapiens, UniProt O15151+P04637); assay: Inhibition of MDMX/p53 (unknown origin) interaction; format: protein assay
[7] = Binding affinity to IFNalpha (unknown origin) assessed as reduction in IFNalpha/IFNAR2 interaction; design: species or system Homo sapiens

T2 sequence (Q03405 whole entry): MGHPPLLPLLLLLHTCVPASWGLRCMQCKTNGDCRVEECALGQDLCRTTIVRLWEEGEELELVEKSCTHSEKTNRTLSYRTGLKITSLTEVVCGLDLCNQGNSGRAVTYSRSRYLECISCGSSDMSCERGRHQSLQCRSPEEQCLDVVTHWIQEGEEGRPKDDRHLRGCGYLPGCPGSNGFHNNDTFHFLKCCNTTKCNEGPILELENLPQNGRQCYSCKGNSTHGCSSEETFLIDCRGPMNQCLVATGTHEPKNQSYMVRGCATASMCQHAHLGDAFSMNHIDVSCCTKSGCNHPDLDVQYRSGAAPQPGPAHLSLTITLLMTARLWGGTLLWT
Keap1/Nrf2, sequence (Q16236 whole entry): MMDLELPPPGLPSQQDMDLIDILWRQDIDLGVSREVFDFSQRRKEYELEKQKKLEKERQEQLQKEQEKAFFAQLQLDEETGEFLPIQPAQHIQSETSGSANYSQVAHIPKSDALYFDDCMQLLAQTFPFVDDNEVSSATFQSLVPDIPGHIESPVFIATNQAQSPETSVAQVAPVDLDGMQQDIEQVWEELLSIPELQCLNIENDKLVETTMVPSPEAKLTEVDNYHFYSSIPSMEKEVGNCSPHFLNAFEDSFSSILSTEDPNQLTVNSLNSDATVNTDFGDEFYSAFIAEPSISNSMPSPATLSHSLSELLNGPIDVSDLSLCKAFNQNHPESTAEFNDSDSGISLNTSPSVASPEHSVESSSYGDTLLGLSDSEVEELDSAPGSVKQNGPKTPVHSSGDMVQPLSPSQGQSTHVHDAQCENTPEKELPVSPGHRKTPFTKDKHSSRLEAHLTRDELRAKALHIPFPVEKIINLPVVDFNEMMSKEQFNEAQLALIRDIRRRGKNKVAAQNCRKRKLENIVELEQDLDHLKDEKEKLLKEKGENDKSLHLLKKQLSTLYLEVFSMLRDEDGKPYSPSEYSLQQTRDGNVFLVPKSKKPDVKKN
Keap1/Nrf2, sequence (Q14145 whole entry): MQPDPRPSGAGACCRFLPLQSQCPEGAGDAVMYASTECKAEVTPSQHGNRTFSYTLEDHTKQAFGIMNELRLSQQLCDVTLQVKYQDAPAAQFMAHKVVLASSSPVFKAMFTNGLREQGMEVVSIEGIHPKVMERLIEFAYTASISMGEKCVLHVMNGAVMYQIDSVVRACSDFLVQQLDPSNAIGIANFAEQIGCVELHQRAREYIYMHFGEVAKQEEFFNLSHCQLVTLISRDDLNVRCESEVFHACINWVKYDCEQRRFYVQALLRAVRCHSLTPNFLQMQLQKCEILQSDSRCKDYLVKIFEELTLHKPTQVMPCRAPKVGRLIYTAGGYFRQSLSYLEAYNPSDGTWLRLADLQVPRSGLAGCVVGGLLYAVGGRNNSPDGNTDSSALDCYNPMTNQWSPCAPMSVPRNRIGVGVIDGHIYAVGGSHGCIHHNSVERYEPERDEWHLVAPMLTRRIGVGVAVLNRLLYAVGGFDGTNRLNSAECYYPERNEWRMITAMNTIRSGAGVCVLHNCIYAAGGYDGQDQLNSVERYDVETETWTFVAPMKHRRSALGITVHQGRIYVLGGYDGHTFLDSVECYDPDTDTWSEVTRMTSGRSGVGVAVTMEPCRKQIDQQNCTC
Neuropilin-1, sequence (O14786 whole entry): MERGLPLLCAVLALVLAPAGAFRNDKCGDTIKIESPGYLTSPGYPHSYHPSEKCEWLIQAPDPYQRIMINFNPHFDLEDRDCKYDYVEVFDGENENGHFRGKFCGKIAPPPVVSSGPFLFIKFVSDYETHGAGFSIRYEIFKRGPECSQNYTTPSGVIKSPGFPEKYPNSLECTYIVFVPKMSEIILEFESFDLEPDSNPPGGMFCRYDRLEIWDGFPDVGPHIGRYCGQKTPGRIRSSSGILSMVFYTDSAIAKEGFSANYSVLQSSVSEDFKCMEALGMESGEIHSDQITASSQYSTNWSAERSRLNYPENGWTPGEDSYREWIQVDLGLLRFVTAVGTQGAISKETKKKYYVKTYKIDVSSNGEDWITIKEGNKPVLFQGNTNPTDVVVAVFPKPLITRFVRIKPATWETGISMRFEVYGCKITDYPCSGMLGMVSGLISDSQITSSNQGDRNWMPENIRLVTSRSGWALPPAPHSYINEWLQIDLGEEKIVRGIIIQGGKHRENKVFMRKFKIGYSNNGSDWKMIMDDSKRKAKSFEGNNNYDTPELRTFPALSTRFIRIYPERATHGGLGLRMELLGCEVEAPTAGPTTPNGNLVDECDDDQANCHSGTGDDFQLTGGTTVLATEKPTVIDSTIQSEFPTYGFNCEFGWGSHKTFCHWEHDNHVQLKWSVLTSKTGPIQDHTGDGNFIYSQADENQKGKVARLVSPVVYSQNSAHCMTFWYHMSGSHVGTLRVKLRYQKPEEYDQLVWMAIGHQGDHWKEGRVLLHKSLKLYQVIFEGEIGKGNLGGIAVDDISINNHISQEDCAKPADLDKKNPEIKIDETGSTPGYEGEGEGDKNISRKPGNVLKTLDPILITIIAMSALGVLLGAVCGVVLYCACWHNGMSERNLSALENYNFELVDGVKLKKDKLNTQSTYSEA
Annexin A2/S100-A10, sequence (P07355 whole entry): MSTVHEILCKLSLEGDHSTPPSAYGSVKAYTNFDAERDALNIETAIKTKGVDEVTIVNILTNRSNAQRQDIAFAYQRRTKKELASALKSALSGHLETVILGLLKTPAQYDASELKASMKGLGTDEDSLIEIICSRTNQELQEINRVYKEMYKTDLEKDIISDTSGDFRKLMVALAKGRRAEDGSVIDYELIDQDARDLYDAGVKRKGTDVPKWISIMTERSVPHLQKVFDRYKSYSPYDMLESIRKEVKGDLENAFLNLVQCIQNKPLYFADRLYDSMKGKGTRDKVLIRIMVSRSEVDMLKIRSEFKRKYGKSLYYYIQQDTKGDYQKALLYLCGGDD
Annexin A2/S100-A10, sequence (P60903 whole entry): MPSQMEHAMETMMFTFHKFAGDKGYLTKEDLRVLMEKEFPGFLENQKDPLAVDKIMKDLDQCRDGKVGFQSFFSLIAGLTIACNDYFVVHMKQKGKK
Tumour suppressor p53/oncoprotein Mdm2, sequence (P04637 whole entry): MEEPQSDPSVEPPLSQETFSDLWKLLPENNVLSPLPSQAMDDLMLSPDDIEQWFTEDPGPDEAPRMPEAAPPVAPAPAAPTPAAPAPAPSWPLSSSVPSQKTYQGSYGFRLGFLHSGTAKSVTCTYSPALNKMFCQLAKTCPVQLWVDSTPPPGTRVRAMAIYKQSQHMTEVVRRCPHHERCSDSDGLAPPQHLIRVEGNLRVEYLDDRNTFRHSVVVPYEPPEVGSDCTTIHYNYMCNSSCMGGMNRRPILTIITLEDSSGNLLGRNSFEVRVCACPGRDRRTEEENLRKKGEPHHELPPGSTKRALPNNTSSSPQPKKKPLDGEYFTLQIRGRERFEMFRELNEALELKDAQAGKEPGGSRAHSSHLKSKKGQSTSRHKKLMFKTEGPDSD
Tumour suppressor p53/oncoprotein Mdm2, sequence (Q00987 whole entry): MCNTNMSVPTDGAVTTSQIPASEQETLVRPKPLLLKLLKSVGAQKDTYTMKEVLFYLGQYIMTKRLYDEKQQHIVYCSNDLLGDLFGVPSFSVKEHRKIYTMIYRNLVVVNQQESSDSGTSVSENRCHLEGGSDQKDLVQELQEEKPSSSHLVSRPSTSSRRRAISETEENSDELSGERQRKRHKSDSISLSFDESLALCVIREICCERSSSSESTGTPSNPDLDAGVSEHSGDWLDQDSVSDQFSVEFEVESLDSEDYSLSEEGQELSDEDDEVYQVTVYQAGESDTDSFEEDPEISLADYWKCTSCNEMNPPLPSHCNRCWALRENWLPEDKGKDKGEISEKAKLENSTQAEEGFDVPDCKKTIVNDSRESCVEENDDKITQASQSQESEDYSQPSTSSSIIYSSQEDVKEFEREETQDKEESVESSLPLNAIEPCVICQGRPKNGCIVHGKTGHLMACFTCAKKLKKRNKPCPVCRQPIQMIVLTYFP
Tumour suppressor protein p53/Mdm4, sequence (P04637 whole entry): as the sequence (P04637 whole entry) above
Tumour suppressor protein p53/Mdm4, sequence (O15151 whole entry): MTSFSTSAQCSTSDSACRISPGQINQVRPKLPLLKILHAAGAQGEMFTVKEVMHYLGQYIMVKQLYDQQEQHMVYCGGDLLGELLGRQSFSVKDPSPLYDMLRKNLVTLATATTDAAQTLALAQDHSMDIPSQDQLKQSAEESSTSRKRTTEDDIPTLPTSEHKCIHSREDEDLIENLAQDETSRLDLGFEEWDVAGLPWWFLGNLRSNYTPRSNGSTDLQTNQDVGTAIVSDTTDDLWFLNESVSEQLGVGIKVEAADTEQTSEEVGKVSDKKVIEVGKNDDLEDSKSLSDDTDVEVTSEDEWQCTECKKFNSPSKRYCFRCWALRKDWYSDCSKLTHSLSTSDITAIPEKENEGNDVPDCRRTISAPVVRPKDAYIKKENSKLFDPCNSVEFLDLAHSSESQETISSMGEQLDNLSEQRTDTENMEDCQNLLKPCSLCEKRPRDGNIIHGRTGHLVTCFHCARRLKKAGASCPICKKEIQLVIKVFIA

IC50 (Annexin A2/S100-A10): 24 µM
Structure (SMILES): Cc1ccccc1OCc1nnc(SCC(N)=O)[nH]1

IC50 (Neuropilin-1): 9.3 µM
Structure (SMILES): O=C(NC(=S)Nc1cccc(-c2nc3ccccc3[nH]2)c1)c1ccc2c(c1)OCCO2
IC50 [1]: 0.2 µM

IC50 (Alpha-crystallin B chain): 20 µM
Structure (SMILES): CC(CC(=O)O)C(N)C(=O)O (configuration not stated)

Ki [2]: 0.18 µM
Structure (SMILES): O=C(O)c1ccccc1/N=N/C(=N\Nc1cc(S(=O)(=O)O)ccc1O)c1ccccc1

Kd (Keap1/Nrf2): 2.9 µM
Structure (SMILES): CCC(CC)c1ccc(S(=O)(=O)Nc2cc(Sc3nc[nH]n3)c(O)c3ccccc23)cc1

IC50 [7]: 4 µM
Structure (SMILES): CNCc1ccccc1Cc1cccc2ccccc12

Further lines, the compound ahead of its results:

Structure (SMILES): COC(=O)[C@@H](CCCCNC(=O)OC(C)(C)C)NC(=O)CI
EC50 (MCF7): 0.64 µM

Structure (SMILES): CC(C)C[C@H](NC(=O)c1ccc(NC(=O)[C@@H](N)Cc2c[nH]c3ccccc23)c(OCCc2c[nH]c3ccccc23)c1)C(=O)O
Ki [3]: 1.5 µM

Structure (SMILES): C[C@H]1C[C@H](C)CN(c2cc(Nc3ccccc3C(=O)O)c3c4c(onc24)-c2ccccc2C3=O)C1
IC50 [4]: 10 µM | Kd [5]: 0.31 µM

Structure (SMILES): C[C@H](CCC(=O)O)[C@H]1CC[C@H]2[C@@H]3CC[C@@H]4C[C@H](O)CC[C@]4(C)[C@H]3CC[C@]12C [LITHOCHOLIC ACID]
Kd [6]: 15 µM
